Assay results taken from PMC10452110, “Indole-3-Acetamido-Polyamines as Antimicrobial Agents and Antibiotic Adjuvants” (Biomolecules, 2023).

Legend:
[1] = tested on: Escherichia coli (ATCC 25922); assay: Intrinsic antimicrobial activity (MIC) against E. coli; format: cell-based; details: ATCC25922, E. coli ATCC 25922, mean (n = 3), read-out: MIC E. c
In short: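 Antibacterial MICs by established in-house protocol; yeast MICs run externally at CO-ADD, University of Queensland, per their standard screening protocols.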

[2] = tested on: Staphylococcus aureus (ATCC 25923); assay: Intrinsic antimicrobial activity (MIC) against S. aureus; format: cell-based; details: ATCC25923, S. aureus ATCC 25923, mean (n = 3), read-out: MIC S. a
In short: (§1)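 MICs for S. aureus ATCC 25923 and P. aeruginosa ATCC 27853 determined by previously reported protocols; C. albicans ATCC 90028 and C. neoformans ATCC 208821 tested at the Community for Open Antimicrobial Drug Discovery (University of Queensland) under its standard protocols.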

[3] = tested on: Cryptococcus neoformans (ATCC 208821); assay: Intrinsic antifungal activity (MIC) against C. neoformans; format: cell-based; details: ATCC208821, C. neoformans ATCC 208821, mean (n = 2), read-out: MIC C. n
In short: as §1

[4] = tested on: Acinetobacter baumannii (ATCC 19606); assay: Intrinsic antimicrobial activity (MIC) against A. baumannii; format: cell-based; details: ATCC19606, A. baumannii ATCC 19606, mean (n = 2), read-out: MIC A. b
Description: (§2) The susceptibility of bacterial strains Staphylococcus aureus (ATCC 25923), Escherichia coli (ATCC 25922) and Pseudomonas aeruginosa (ATCC 27853) to antibiotics and compounds was determined using previously reported protocols. Additional antimicrobial evaluation against MRSA (ATCC 43300), Klebsiella pneumoniae (ATCC 700603), Acinetobacter baumannii (ATCC 19606), Candida albicans (ATCC 90028) and Cryptococcus neoformans (ATCC 208821) was undertaken at the Community for Open Antimicrobial Drug Discovery at The University of Queensland (Australia) according to their standard protocols, as reported previously.

[5] = tested on: Pseudomonas aeruginosa (ATCC 27853); assay: Intrinsic antimicrobial activity (MIC) against P. aeruginosa; format: cell-based; details: ATCC27853, P. aeruginosa ATCC 27853, mean (n = 3), read-out: MIC P. a
In short: as §1

human red blood cells = assay: Hemolytic assay; format: cell-based; details: mean (n = 2)
Description: Hemolysis assays were conducted using the protocols previously reported.

P. aeruginosa ATCC 27853 = assay: Enhancement of doxycycline action against P. aeruginosa; format: cell-based, Pseudomonas aeruginosa; details: doxycycline at 4.5 µM
Description: (§3) Antibiotic enhancer concentrations were determined using previously reported protocols.

E. coli ATCC 25922 = assay: Enhancement of erythromycin action against E. coli; format: cell-based, Escherichia coli; details: erythromycin at 10.9 µM
Description: as §3

[6] = tested on: Klebsiella pneumoniae (ATCC 700603); assay: Intrinsic antimicrobial activity (MIC) against K. pneumoniae; format: cell-based; details: ATCC700603, K. pneumoniae ATCC 700603, mean (n = 2), read-out: MIC K. p
Description: as §2

Cytotoxicity assay = format: cell-based; details: human; HEK293 cells; mean (n = 2); read-out: Cytotoxicity: concentration of compound at 50% cytotoxicity (IC50)
Description: Cytotoxicity assays were conducted using the protocols previously reported.

MRSA (ATCC 43300) = assay: Intrinsic antimicrobial activity (MIC) against MRSA; format: cell-based; details: Staphylococcus aureus, MRSA ATCC 43300; mean (n = 2); read-out: MIC MRSA
In short: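 Bacterial susceptibility was determined following previously reported protocols. The antifungal evaluations were carried out at the Community for Open Antimicrobial Drug Discovery (University of Queensland, Australia) under its standard protocols.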

[7] = tested on: Candida albicans (ATCC 90028); assay: Intrinsic antifungal activity (MIC) against C. albicans; format: cell-based; details: ATCC90028, C. albicans ATCC 90028, mean (n = 2), read-out: MIC C. a
In short: as §1

Compound | MIC [1] | MIC [2] | MIC [3] | MIC [4] | MIC [5] | Hemolysis: concentration of compound at 10% hemolytic activity (HC10) (human red blood cells) | Dox/P. a fold change (ratio between intrinsic MIC of the test compound and combination MIC) (P. aeruginosa ATCC 27853) | Dox/P. a: concentration required to restore doxycycline activity (combination MIC) (P. aeruginosa ATCC 27853) | Eryth/E. c: concentration required to restore erythromycin activity (combination MIC) (E. coli ATCC 25922) | MIC [6] | IC50 (Cytotoxicity assay) | MIC (MRSA (ATCC 43300)) | MIC [7]
O=C(Cc1c[nH]c2ccccc12)NCCCNCCCCCCCCCCCCNCCCNC(=O)Cc1c[nH]c2ccccc12.O=C(O)C(F)(F)F.O=C(O)C(F)(F)F [Compound 14f, N^1,N^12-Bis(3-(2-(1H-indol-3-yl)acetamido)propyl)dodecane-1,12-diaminium 2,2,2-trifluoroacetate] | 29.2 µM | 3.65 µM | ≤ 0.29 µM | > 37 µM | 58.3 µM | ≤0.29 µM | 4 fold | 14.6 µM | 14.6 µM | > 37 µM | > 37 µM | ≤ 0.29 µM | ≤ 0.29 µM
COc1ccc2[nH]cc(CC(=O)NCCCNCCCCCCCCCCCCNCCCNC(=O)Cc3c[nH]c4ccc(OC)cc34)c2c1.O=C(O)C(F)(F)F.O=C(O)C(F)(F)F [Compound 16f, N^1,N^12-Bis(3-(2-(5-methoxy-1H-indol-3-yl)acetamido)propyl)dodecane-1,12-diaminium 2,2,2-trifluoroacetate] | 13.6 µM | 6.82 µM | ≤ 0.27 µM | > 35 µM | 109 µM | >35 µM | 8 fold | 13.6 µM | 27.3 µM | > 35 µM | > 35 µM | ≤ 0.27 µM | 35 µM
COc1cccc2c(CC(=O)NCCCNCCCCCCCNCCCNC(=O)Cc3c[nH]c4c(OC)cccc34)c[nH]c12.O=C(O)C(F)(F)F.O=C(O)C(F)(F)F [Compound 19c, N^1,N^7-Bis(3-(2-(7-methoxy-1H-indol-3-yl)acetamido)propyl)heptane-1,7-diaminium 2,2,2-trifluoroacetate] | 236 µM | 29.5 µM | ≤ 0.3 µM | > 38 µM | > 236 µM | >38 µM | > 2 fold | 118 µM | 236 µM | > 38 µM | > 38 µM | 37.8 µM | > 38 µM
O=C(Cc1c[nH]c2ccccc12)NCCCNCCCCCCCCNCCCNC(=O)Cc1c[nH]c2ccccc12.O=C(O)C(F)(F)F.O=C(O)C(F)(F)F [Compound 14d, N^1,N^8-Bis(3-(2-(1H-indol-3-yl)acetamido)propyl)octane-1,8-diaminium 2,2,2-trifluoroacetate] | 62.4 µM | 31.2 µM | ≤ 0.31 µM | > 40 µM | > 250 µM | 15.8 µM | > 1 fold | 250 µM | 250 µM | > 40 µM | > 40 µM | ≤ 0.31 µM | > 40 µM
COc1ccc2[nH]cc(CC(=O)NCCCNCCCCCCCCCCNCCCNC(=O)Cc3c[nH]c4ccc(OC)cc34)c2c1.O=C(O)C(F)(F)F.O=C(O)C(F)(F)F [Compound 16e, N^1,N^10-Bis(3-(2-(5-methoxy-1H-indol-3-yl)acetamido)propyl)decane-1,10-diaminium 2,2,2-trifluoroacetate] | 14.1 µM | 7.03 µM | ≤ 0.28 µM | > 36 µM | 112 µM | >36 µM | 8 fold | 14.1 µM | 28.1 µM | > 36 µM | > 36 µM | ≤ 0.28 µM | 2.25 µM
Cc1ccc2[nH]cc(CC(=O)NCCCNCCCCCCCCCCCCNCCCNC(=O)Cc3c[nH]c4ccc(C)cc34)c2c1.O=C(O)C(F)(F)F.O=C(O)C(F)(F)F [Compound 17f, N^1,N^12-Bis(3-(2-(5-methyl-1H-indol-3-yl)acetamido)propyl)dodecane-1,12-diaminium 2,2,2-trifluoroacetate] | 14.1 µM | 7.06 µM | ≤ 0.28 µM | 36 µM | 226 µM | ≤0.28 µM | 1 fold | 226 µM | 14.1 µM | > 36 µM | > 36 µM | ≤ 0.28 µM | ≤ 0.28 µM
O=C(Cc1c[nH]c2ccc(Br)cc12)NCCCNCCCCCCCCCCCCNCCCNC(=O)Cc1c[nH]c2ccc(Br)cc12.O=C(O)C(F)(F)F.O=C(O)C(F)(F)F [Compound 15f, N^1,N^12-Bis(3-(2-(5-bromo-1H-indol-3-yl)acetamido)propyl)dodecane-1,12-diaminium 2,2,2-trifluoroacetate] | 12.3 µM | 6.16 µM | ≤ 0.25 µM | 7.88 µM | 197 µM | ≤0.25 µM | 2 fold | 98.5 µM | 24.6 µM | > 32 µM | 4.75 µM | ≤ 0.25 µM | ≤ 0.25 µM
O=C(Cc1c[nH]c2ccccc12)NCCCNCCCCCCCNCCCNC(=O)Cc1c[nH]c2ccccc12.O=C(O)C(F)(F)F.O=C(O)C(F)(F)F [Compound 14c, N^1,N^7-Bis(3-(2-(1H-indol-3-yl)acetamido)propyl)heptane-1,7-diaminium 2,2,2-trifluoroacetate] | > 254 µM | 15.9 µM | ≤ 0.32 µM | > 41 µM | > 254 µM | 0.72 µM | 4 fold | 63.5 µM | > 254 µM | > 41 µM | > 41 µM | ≤ 0.32 µM | > 41 µM
O=C(Cc1c[nH]c2ccc(Br)cc12)NCCCNCCCCCCCCNCCCNC(=O)Cc1c[nH]c2ccc(Br)cc12.O=C(O)C(F)(F)F.O=C(O)C(F)(F)F [Compound 15d, N^1,N^8-Bis(3-(2-(5-bromo-1H-indol-3-yl)acetamido)propyl)octane-1,8-diaminium 2,2,2-trifluoroacetate] | 26.1 µM | 13 µM | ≤ 0.26 µM | > 33 µM | > 209 µM | 10.1 µM | > 4 fold | 52.2 µM | 52.2 µM | > 33 µM | > 33 µM | ≤ 0.26 µM | 2.09 µM
Cc1ccc2[nH]cc(CC(=O)NCCCNCCCCCCCCCCNCCCNC(=O)Cc3c[nH]c4ccc(C)cc34)c2c1.O=C(O)C(F)(F)F.O=C(O)C(F)(F)F [Compound 17e, N^1,N^10-Bis(3-(2-(5-methyl-1H-indol-3-yl)acetamido)propyl)decane-1,10-diaminium 2,2,2-trifluoroacetate] | 58.3 µM | 7.29 µM | ≤ 0.29 µM | 37 µM | 233 µM | 3.19 µM | 1 fold | 233 µM | 29.2 µM | > 37 µM | > 37 µM | ≤ 0.29 µM | ≤ 0.29 µM
